Data from US20230122911A1, “FORMULATIONS OF ENZALUTAMIDE” (Astellas Pharma Inc., priority 2012, published 2023).

Columns and labels:
[1] = Microcentrifuge dissolution test in Model Fasted Duodenal Solution; assay type: physicochemical; settings: for Enzalutamide Concentration / AUC90 (area under the curve at 90 minutes) / Cmax,90 (maximum drug concentration through 90 minutes): MFDS pH 6.5, dose 200 µg/ml; for AUC90 (area under the curve at 90 minutes) / Cmax,90 (maximum drug concentration through 90 minutes): Table 4.2; for Average enzalutamide concentration: Table 9.1
From the text: The in vitro dissolution test to evaluate enhanced drug concentration in aqueous solution can be conducted by (1) adding with agitation a sufficient quantity of control composition, that is, the crystalline enzalutamide alone, to the in vitro test medium, typically MFD or PBS solution, to determine the maximum concentration of the enzalutamide achieved under the conditions of the test: (2) adding with agitation a sufficient quantity of test composition (e.g., the enzalutamide and polymer) in an equivalent test medium, such that if all the enzalutamide dissolved, the theoretical concentration of enzalutamide would exceed the observed maximum concentration of enzalutamide by a factor of about 20; and (3) comparing the measured MDC and/or aqueous concentration versus time AUC90 of the test composition in the test medium with the maximum concentration, and/or the aqueous concentration versus time AUC90 of the control composition. In conducting such a dissolution test, the amount of test composition or control composition used is an amount such that if all of the enzalutamide dissolved, the test enzalutamide concentration would be at least about 20-fold that of the control enzalutamide concentration.
The concentration of dissolved enzalutamide is typically measured as a function of time by sampling the test medium and plotting enzalutamide concentration in the test medium vs. time so that the MDC can be ascertained. The MDC is taken to be the maximum value of dissolved enzalutamide measured over the duration of the test. The enzalutamide concentration versus time AUC90 is calculated by integrating the concentration versus time curve over any 90-minute time period between the time of introduction of the composition into the aqueous use environment (time equals zero) and 270 minutes following introduction to the use environment (time equals 270 minutes). Typically, when the composition reaches its MDC rapidly, in less than about 30 minutes, the time interval used to calculate AUC90 is from time equals zero to time equals 90 minutes. However, if the AUC90 over any 90-minute time period described above of a composition meets the criteria of compositions described herein, then the composition is included in compositions of this disclosure. The time period 270 min is chosen because of its physiological relevance. Drug absorption in mammals generally occurs in the small intestine, and the small intestinal transit time in humans is approximately 4.5 hr, or 270 min.
To avoid large enzalutamide particulates which would give an erroneous determination, the test solution is either filtered or centrifuged. “Dissolved enzalutamide” is typically taken as that material that either passes a 0.45 micron syringe filter or, alternatively, the material that remains in the supernatant following centrifugation. Filtration can be conducted using a 13 mm, 0.45 micron polyvinylidine difluoride syringe filter, such as the filter sold by Scientific Resources under the trademark TITAN™. Centrifugation is typically carried out in a polypropylene microcentrifuge tube by centrifuging at 13.000 G for 60 seconds. Other similar filtration or centrifugation methods can be employed and useful results obtained. For example, using other types of microfilters may yield values somewhat higher or lower (+/- 10-40%) than that obtained with the filter specified above but will still allow identification of dispersions. It is recognized that this definition of “dissolved enzalutamide” encompasses not only monomeric solvated enzalutamide molecules but also a wide range of species such as polymer/enzalutamide assemblies that have submicron dimensions such as enzalutamide aggregates, aggregates of mixtures of polymer and enzalutamide, micelles, polymeric micelles, colloidal particles, polymer/enzalutamide complexes, and other such enzalutamide-containing species that are present in the filtrate or supernatant in the specified dissolution test. […]

[2] = Relative bioavailability of amorphous drug and HME dispersions in rats (Example 13); assay type: in vivo, rat; settings: oral gavage 20 mg/kg; for Mean AUC0-inf: rat plasma; for Bioavailability (Mean AUC0-inf/IV Mean AUC0-inf): rat
Description: Six groups of jugular vein-cannulated CD® rats (n=6 per group) were dosed six enzalutamide formulations by oral gavage, at a dose of 20 mg/kg, in a volume of 2 ml/kg. with the exception of one group which was dosed intravenously via tail vein. Blood samples were obtained at 1, 3, 6, 12, 24, 36, 48, 60, and 72 hr post-dose.
The analytes, enzalutamide, MDPC0002, and MDPC0001 and internal standards (IS), N-^13CD3-enzalutamide, MDPC0002-^13CD3. and MDPC0001-^13CD3 were extracted from […] of rat plasma by a liquid-liquid extraction procedure. Internal standard working solution (25.0 µL) was added to all wells except the matrix blank. A 25.0 µL-volume of acetonitrile was added all matrix blank samples. After adding 200 µL of 5% sodium bicarbonate in water buffer solution, the plate was vortexed for approximately 10 seconds. A Tomtec Quadra 96-well pipettor was used to add 1.050 mL of methyl tert-butyl ether (MTBE) to all wells, mixed, and approximately 1.00 mL of the organic layer was transferred to a clean 96-well plate. The samples were evaporated under heated nitrogen and reconstituted with 250 µL of 0.1% formic acid in methanol/water (40:60, v/v). The plate was covered and gently vortexed for approximately 10 seconds. The extracts were chromatographed under reverse phase conditions on an ACE 5 C18 HPLC 5 µm, 2.1 x 30 mm column. The compounds were detected and quantified by tandem mass spectrometry in positive ion mode on an MDS Sciex API 3000 equipped with a Turbo IONSPRAY® probe. Calibration curves were obtained by performing a linear regression (weighted ⅟x^2) of the data from the calibration standards.
Plasma enzalutamide concentration vs. time curves were prepared, and values for the following parameters were determined. Cmax is the highest enzalutamide concentration observed for each rat. Tmax is the time that Cmax is first achieved. AUC0-72 is the area under the plasma enzalutamide concentration vs. time plot out to 72 hr post-dosing.

[3] = listed as Amorphous (spray-dried) enzalutamide
[4] = listed as Spray-dried amorphous drug

CNC(=O)c1ccc(N2C(=S)N(c3ccc(C#N)c(C(F)(F)F)c3)C(=O)C2(C)C)cc1F [Control 1, 4-{3-[4-cyano-3-(trifluoromethyl)phenyl]-5,5-dimethyl-4-oxo-2-sulfanylideneimidazolidin-1-yl}-2-fluoro-N-methylbenzamide]
Enzalutamide Concentration ([1]; 4 min): 1 µg/mL
Enzalutamide Concentration ([1]; 10 min): 3 µg/mL
Enzalutamide Concentration ([1]; 20 min): 5 µg/mL
Enzalutamide Concentration ([1]; 40 min): 6 µg/mL
Enzalutamide Concentration ([1]; 90 min): 7 µg/mL
Enzalutamide Concentration ([1]; 1200 min): 9 µg/mL
AUC90 (area under the curve at 90 minutes) [1]: 500 µg·min/mL
Cmax,90 (maximum drug concentration through 90 minutes) [1]: 7000 ng/mL
Average enzalutamide concentration ([1]; 0 min): 0.32 µg/mL
Average enzalutamide concentration ([1]; 4 min): 5.23 µg/mL
Average enzalutamide concentration ([1]; 10 min): 8.04 µg/mL
Average enzalutamide concentration ([1]; 20 min): 7.69 µg/mL
Average enzalutamide concentration ([1]; 40 min): 8.65 µg/mL
Average enzalutamide concentration ([1]; 90 min): 9.14 µg/mL
Average enzalutamide concentration ([1]; 1200 min): 12.12 µg/mL
AUC90 min ([1]; Table 9.2): 740 µg·min/mL
Cmax,90 min ([1]; Table 9.2): 10000 ng/mL
Mean AUC0-inf [2]: 62600 ng·h/mL
Bioavailability (Mean AUC0-inf/IV Mean AUC0-inf) [2]: 27.1%

CNC(=O)c1ccc(N2C(=S)N(c3ccc(C#N)c(C(F)(F)F)c3)C(=O)C2(C)C)cc1F [Amorphous enzalutamide, 4-{3-[4-cyano-3-(trifluoromethyl)phenyl]-5,5-dimethyl-4-oxo-2-sulfanylideneimidazolidin-1-yl}-2-fluoro-N-methylbenzamide]
Enzalutamide Concentration ([1]; 0 min): 0.0 µg/mL
Enzalutamide Concentration ([1]; 4 min, listed as Amorphous (spray-dried) enzalutamide): 61 µg/mL
Enzalutamide Concentration ([1]; 10 min, listed as Amorphous (spray-dried) enzalutamide): 100 µg/mL
Enzalutamide Concentration ([1]; 20 min, listed as Amorphous (spray-dried) enzalutamide): 100 µg/mL
Enzalutamide Concentration ([1]; 40 min, listed as Amorphous (spray-dried) enzalutamide): 110 µg/mL
Enzalutamide Concentration ([1]; 90 min, listed as Amorphous (spray-dried) enzalutamide): 120 µg/mL
Enzalutamide Concentration ([1]; 1200 min, listed as Amorphous (spray-dried) enzalutamide): 30 µg/mL
AUC90 (area under the curve at 90 minutes) [1, 3]: 9,500 min*µg/mL
Cmax,90 (maximum drug concentration through 90 minutes) [1, 3]: 120000 ng/mL
Mean AUC0-inf [2, 4]: 132000 ng·h/mL
Bioavailability (Mean AUC0-inf/IV Mean AUC0-inf) [2, 4]: 57.1%
